# Measured values: patent publication US20230372361A1, “USE OF OXYGENATED CHOLESTEROL SULFATES FOR TREATING INFLAMMATORY CONDITIONS” (Durect Corporation, priority 2020, published 2023)
# Experiments:
# [1] = Metabolite profiling of plasma, urine, feces after intravenous dose (HPLC radiodetection, MS); type: in vivo, rats; settings: iv 10 mg/kg
# Experimental: Plasma pools were made from Group 1 rats at the 0.083, 0.25, 0.5, and 1-hour collection time points.
# Urine pools were prepared for Group 2 at 0 to 6 and 6 to 12 hours post-dose. […] Four metabolites present at <10% relative observed intensity in at least 1 sample were M7 (<5% relative observed intensity), M16 (<3% relative observed intensity), M19 (<6% relative observed intensity), and M25 (<5% relative observed intensity).
# Feces pools were prepared for Group 2 at 0 to 12, 12 to 24, and 24 to 48 hours post-dose.
# DNMT1/3a/3b = DNMT1/3a/3b activities, overall statements; type: biochemical; settings: for effect on enzymatic activities: controls
# Experimental: For the DNMT1 activity assay, the substrate solution, 0.001 mg/ml Poly(dI-dC):Poly(dI-dC) in 50 mM Tris-HCl, pH 7.5, 50 mM NaCl, 5 mM EDTA, 5 mM DTT, 1 mM PMSF, 5% glycerol, 0.01% Brij35, 1% DMSO was used. For the DNMT3a/3b activity assay, 0.0075 mg/ml Lambda DNA in 50 mM Tris-HCl, pH 7.5, 50 mM NaCl, 5 mM EDTA, 5 mM DTT, 1 mM PMSF, 5% glycerol, 1% DMSO, was used. The indicated DNMT1, DNMT3a, or DNMT3b was added to the appropriate substrate solution and gently mixed. […] The mixtures were first incubated for 15 min, then ^3H-SAM was added to the reaction mixture to initiate the reaction, and the mixture was incubated for 60 min at 30° C. Following incubation, the reaction mixture was finally transferred to filter-paper for detection of radioactivity counts.
# [2] = Metabolite profiling of plasma and feces after oral dose (radio-HPLC, HPLC/MS); parameters: species or system rats; settings: Sprague Dawley, rat, in vivo, 75 mg/kg
# Experimental: Radiolabeled components in plasma and feces extracts were profiled and identified using radio-high performance liquid chromatography (HPLC) and high performance liquid chromatography/mass spectrometry (HPLC/MS) methods.
# Plasma pools were prepared for Group 1 (75 mg/kg, [14C]-25HC3S) samples collected at 2, 4, and 6 hours post-dose. […] One metabolite M29 was identified as 25-hydroxycholesterol with 37% ROI and a concentration of 1233 ng-equiv./g.
# Feces pools were prepared for Group 2 (75 mg/kg, [^14C]-25HC3S) samples collected from 0 to 24, 24 to 48, 48 to 72, 72 to 96, 96 to 120, 120 to 144, and 144 to 168 hours post-dose. A total of eleven metabolites were identified. None of the metabolites were present at ≥5% of dose. Metabolites present at 2-5% of dose were M1(4.5% of total dose and 1%-69% ROI), M3 (4.6% of total dose and 1%-44% ROI), M4 (2.0% of total dose and 0%-10% ROI), M8 (3.1% of total dose and 1%-46% ROI), M29 (1.9% of total dose and 0%-2% ROI), and M30 (3.3% of total dose and 0%-5% ROI).
Compound,"detection in plasma, urine, or feces samples [1]",effect on enzymatic activities (DNMT1/3a/3b),also measured
"C[C@H](CCCC(C)(C)O)[C@H]1CC[C@H]2[C@@H]3CC=C4C[C@@H](O)CC[C@]4(C)[C@H]3CC[C@]12C [25HC, 25-Hydroxycholesterol, reference compound]",Neither desmosterol sulfate nor 25-hydroxycholesterol was detected,,
"C[C@@H](CO)CCC[C@@H](C)[C@H]1CC[C@H]2[C@@H]3CC=C4C[C@@H](O)CC[C@]4(C)[C@H]3CC[C@]12C [27HC, 27-Hydroxycholesterol]",,,effect on other enzymes (than DNMT-1) (DNMT1/3a/3b): had no effect on other enzymes
"C[C@H](CCCC(C)(C)O)[C@H]1CC[C@H]2[C@@H]3CC=C4C[C@@H](O)CC[C@]4(C)[C@H]3CC[C@]12C [M29, 25-hydroxycholesterol]",,,ROI in feces [2]: 0-2%
"CC(C)CCC[C@@H](C)[C@H]1CC[C@H]2[C@@H]3CC=C4C[C@@H](OS(=O)(=O)O)CC[C@]4(C)[C@H]3CC[C@]12C [Xol3S, 5-cholesten-3β-ol, 3-sulfate]",,did not significantly affect enzymatic activities,
"CC(C)CCC[C@@H](C)[C@H]1CC[C@H]2[C@@H]3CC=C4C[C@@H](O)CC[C@]4(C)[C@H]3CC[C@]12C [Xol, Cholesterol]",,did not significantly affect enzymatic activities,
desmosterol sulfate,Neither desmosterol sulfate nor 25-hydroxycholesterol was detected,,
